Laboratory results: PMC6325233, “A Novel Actin Binding Drug with In Vivo Efficacy” (Antimicrobial Agents and Chemotherapy, 2018)
“Also recorded” adds a separate entry of the source.

Experiments:
Type in all cases: cell-based
Aspergillus flavus 28517 = experiment: MIC susceptibility testing; parameters: key to MIC, 50% inhibition: -: indicates absence of isolates with 50% inhibition endpoint; details: CLSI M38-A2
Description: (§1) Occidiofungin was purified from a liquid culture of Burkholderia contaminans MS14 as previously described ([21]). MIC susceptibility testing was performed according to the CLSI M27-A3 and M38-A2 standards for the susceptibility testing of yeasts and filamentous fungi, respectively. S. cerevisiae deletion mutants were obtained from the commercially available BY4741 deletion library (Thermo Scientific).

[1] = system: Aspergillus fumigatus 28434; experiment: MIC susceptibility testing; parameters: key to MIC, 50% inhibition: -: indicates absence of isolates with 50% inhibition endpoint; details: CLSI M38-A2
Description: as §1

Candida albicans 28102 = experiment: MIC susceptibility testing; parameters: key to MIC, 50% inhibition: -: indicates absence of isolates with 50% inhibition endpoint; details: CLSI M27-A3
Description: as §1

Candida glabrata 25742 = experiment: MIC susceptibility testing; parameters: key to MIC, 50% inhibition: -: indicates absence of isolates with 50% inhibition endpoint; details: CLSI M27-A3
Description: as §1

Candida krusei 9541 = experiment: MIC susceptibility testing; parameters: key to MIC, 50% inhibition: -: indicates absence of isolates with 50% inhibition endpoint; details: CLSI M27-A3
Description: as §1

[2] = system: Candida parapsilosis 28174; experiment: MIC susceptibility testing; parameters: key to MIC, 50% inhibition: -: indicates absence of isolates with 50% inhibition endpoint; details: CLSI M27-A3
Description: as §1

[3] = system: Cryptococcus neoformans 27708; experiment: MIC susceptibility testing; parameters: key to MIC, 50% inhibition: -: indicates absence of isolates with 50% inhibition endpoint; details: CLSI M27-A3; 72 hours
Description: as §1

[4] = system: Cryptococcus neoformans 28446; experiment: MIC susceptibility testing; parameters: key to MIC, 50% inhibition: -: indicates absence of isolates with 50% inhibition endpoint; details: CLSI M27-A3; 72 hours
Description: as §1

Mucor fragilis 27782 = experiment: MIC susceptibility testing; parameters: key to MIC, 50% inhibition: -: indicates absence of isolates with 50% inhibition endpoint; details: CLSI M38-A2
Description: as §1

Mucor racemosus 27784 = experiment: MIC susceptibility testing; parameters: key to MIC, 50% inhibition: -: indicates absence of isolates with 50% inhibition endpoint; details: CLSI M38-A2
Description: as §1

[5] = system: Rhizopus microsporus 27785; experiment: MIC susceptibility testing; parameters: key to MIC, 50% inhibition: -: indicates absence of isolates with 50% inhibition endpoint; details: CLSI M38-A2
Description: as §1

[6] = system: Rhizopus microsporus 28506; experiment: MIC susceptibility testing; parameters: key to MIC, 50% inhibition: -: indicates absence of isolates with 50% inhibition endpoint; details: CLSI M38-A2
Description: as §1

[7] = system: Saccharomyces cerevisiae BY4741; experiment: MIC susceptibility testing
Description: as §1
The addition of an alkyne reactive group to the primary amine on occidiofungin was performed initially at the Texas A&M Natural Products LINCHPIN Laboratory at Texas A&M University and subsequently at the CPRIT Synthesis and Drug-Lead Discovery Laboratory at Baylor University (see Fig. S1 in the supplemental material). A solution of triethylamine and acetonitrile was prepared by dissolving 10 µl of triethylamine in 11.7 ml of acetonitrile. A stock solution of acetonitrile and the reagents was prepared by adding 2,5-dioxopyrrolidin-1-yl hex-5-ynoate (1.40 mg, 6.69 µmole, 8.2 equivalent) to 1.08 ml of the triethylamine and acetonitrile solution prepared above. Occidiofungin (1 mg, 0.82 µmole, 1 equiv.) was added to the stock solution of acetonitrile and reagents (400 µl) containing triethylamine (0.34 µl, 2.46 µmole, 3 equiv.) and 2,5-dioxopyrrolidin-1-yl hex-5-ynoate ([…], 2.46 µmole, 3 eq). […]

[8] = system: clinically relevant fungi; experiment: Spectrum of antifungal activity (summary)
Description: as §1

Substance: occidiofungin
- MIC, 50% inhibition (Aspergillus flavus 28517; 24 hours): -
- MIC, 100% inhibition (Aspergillus flavus 28517; 24 hours): 4 µg/mL
- MIC, 50% inhibition (Aspergillus flavus 28517; 48 hours): -
- MIC, 100% inhibition (Aspergillus flavus 28517; 48 hours): 4 µg/mL
- MIC, 50% inhibition ([1]; 24 hours): -
- MIC, 100% inhibition ([1]; 24 hours): 4 µg/mL
- MIC, 50% inhibition ([1]; 48 hours): -
- MIC, 100% inhibition ([1]; 48 hours): 4 µg/mL
- MIC, 50% inhibition (Candida albicans 28102; 24 hours): -
- MIC, 100% inhibition (Candida albicans 28102; 24 hours): 2 µg/mL
- MIC, 50% inhibition (Candida albicans 28102; 48 hours): -
- MIC, 100% inhibition (Candida albicans 28102; 48 hours): 2 µg/mL
- MIC, 50% inhibition (Candida glabrata 25742; 24 hours): -
- MIC, 100% inhibition (Candida glabrata 25742; 24 hours): 2 µg/mL
- MIC, 50% inhibition (Candida glabrata 25742; 48 hours): -
- MIC, 100% inhibition (Candida glabrata 25742; 48 hours): 2 µg/mL
- MIC, 50% inhibition (Candida krusei 9541; 24 hours): 2 µg/mL
- MIC, 100% inhibition (Candida krusei 9541; 24 hours): 4 µg/mL
- MIC, 50% inhibition (Candida krusei 9541; 48 hours): -
- MIC, 100% inhibition (Candida krusei 9541; 48 hours): 4 µg/mL
- MIC, 50% inhibition ([2]; 24 hours): -
- MIC, 100% inhibition ([2]; 24 hours): 4 µg/mL
- MIC, 50% inhibition ([2]; 48 hours): -
- MIC, 100% inhibition ([2]; 48 hours): 4 µg/mL
- MIC, 50% inhibition [3]: -
- MIC, 100% inhibition [3]: 2 µg/mL
- MIC, 50% inhibition [4]: -
- MIC, 100% inhibition [4]: 1 µg/mL
- MIC, 50% inhibition (Mucor fragilis 27782; 24 hours): 2 µg/mL
- MIC, 100% inhibition (Mucor fragilis 27782; 24 hours): 4 µg/mL
- MIC, 50% inhibition (Mucor fragilis 27782; 48 hours): -
- MIC, 100% inhibition (Mucor fragilis 27782; 48 hours): 4 µg/mL
- MIC, 50% inhibition (Mucor racemosus 27784; 24 hours): 2 µg/mL
- MIC, 100% inhibition (Mucor racemosus 27784; 24 hours): 4 µg/mL
- MIC, 50% inhibition (Mucor racemosus 27784; 48 hours): -
- MIC, 100% inhibition (Mucor racemosus 27784; 48 hours): 4 µg/mL
- MIC, 50% inhibition ([5]; 24 hours): 2 µg/mL
- MIC, 100% inhibition ([5]; 24 hours): 4 µg/mL
- MIC, 50% inhibition ([5]; 48 hours): -
- MIC, 100% inhibition ([5]; 48 hours): 8 µg/mL
- MIC, 50% inhibition ([6]; 24 hours): 4 µg/mL
- MIC, 100% inhibition ([6]; 24 hours): 8 µg/mL
- MIC, 50% inhibition ([6]; 48 hours): -
- MIC, 100% inhibition ([6]; 48 hours): 8 µg/mL
- MIC ([7]; CLSI M27-A3, alkyne-OF vs native comparison (S2 Table)): 0.125 µg/mL
- MIC ([7]; parent strain of deletion mutants (S4 Table)): 0.25 µg/mL
- activity against filamentous fungi ([8]; Aspergillus, Mucor, Fusarium, Rhizopus, and azole- and terbinafine-resistant Trichophyton): active
- activity against fluconazole- and caspofungin-resistant Candida ([8]; Candida albicans, Candida glabrata, Candida parapsilosis resistant to fluconazole and caspofungin): sensitive to occidiofungin
- activity against caspofungin-resistant strains ([8]; Candida parapsilosis and C. neoformans resistant to caspofungin): susceptible to treatment with occidiofungin
- activity against C. auris ([8]; strains of C. auris): sensitive to occidiofungin at submicromolar concentrations
- activity against filamentous and nonfilamentous fungi ([8]; summary of Table S1): low micromolar inhibitory activity; also recorded: activity against filamentous and nonfilamentous fungi at submicromolar concentrations
- spectrum of activities vs other clinically available antifungals ([8]; summary of Table S1): broader spectrum of activities
